{
  "source": "paper PMC7044277",
  "about": "(Nature Communications, 2020)",
  "format_in_all_cases": "cell-based",
  "key": {"[1]": {"target": "DRD2 (D2 long receptor) (Homo sapiens, UniProt P14416)", "sequence (P14416 whole entry)": "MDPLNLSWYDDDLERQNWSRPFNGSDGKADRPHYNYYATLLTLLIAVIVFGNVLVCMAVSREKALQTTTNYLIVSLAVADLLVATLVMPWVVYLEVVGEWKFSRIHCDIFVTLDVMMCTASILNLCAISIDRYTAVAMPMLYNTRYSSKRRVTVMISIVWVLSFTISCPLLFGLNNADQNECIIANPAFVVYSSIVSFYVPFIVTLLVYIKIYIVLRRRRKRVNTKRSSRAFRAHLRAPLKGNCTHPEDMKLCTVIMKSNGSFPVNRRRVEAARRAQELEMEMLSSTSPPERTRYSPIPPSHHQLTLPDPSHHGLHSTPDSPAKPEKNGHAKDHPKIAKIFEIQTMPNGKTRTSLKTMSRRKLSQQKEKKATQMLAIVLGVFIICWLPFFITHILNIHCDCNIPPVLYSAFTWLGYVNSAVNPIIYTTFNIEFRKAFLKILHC", "experiment": "Gαi/o-mediated cAMP inhibition (GloSensor split-luciferase cAMP reporter), HEK293T;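 for all read-outs here: compounds applied 15 min at room temperature, then luciferin plus 400 nM isoproterenol to raise cAMP through endogenous β2-adrenergic receptors, luminescence read 15 min later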", "settings": "for response, Fig_S11d dose-response source data: replicate values; for Response, Fig_S11b dose-response: individual replicates"}, "[2]": {"target": "DRD2 F1103.28A (Homo sapiens, UniProt P14416, F110A)", "sequence (P14416 whole entry F110A)": "as the sequence (P14416 whole entry) above, with F110A counted along it", "experiment": "Gαi/o-mediated cAMP inhibition (GloSensor), mutant", "set-up": "expressed in transfected cells; host or cells: HEK293T (ATCC CRL-11268)"}, "[3]": {"target": "DRD3 (Homo sapiens, UniProt P35462)", "sequence (P35462 whole entry)": "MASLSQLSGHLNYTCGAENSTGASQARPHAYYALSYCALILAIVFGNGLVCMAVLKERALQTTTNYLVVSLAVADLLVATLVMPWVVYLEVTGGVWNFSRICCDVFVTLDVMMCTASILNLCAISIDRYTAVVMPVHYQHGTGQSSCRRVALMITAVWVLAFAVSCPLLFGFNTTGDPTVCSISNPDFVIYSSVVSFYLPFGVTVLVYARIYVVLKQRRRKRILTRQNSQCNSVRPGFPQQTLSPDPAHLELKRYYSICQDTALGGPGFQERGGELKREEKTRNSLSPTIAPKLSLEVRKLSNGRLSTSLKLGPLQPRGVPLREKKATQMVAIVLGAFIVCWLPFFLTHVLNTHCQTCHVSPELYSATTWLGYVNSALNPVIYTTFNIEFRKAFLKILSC", "experiment": "Gαi/o-mediated cAMP inhibition (GloSensor)", "settings": "DRD3, cAMP inhibition"}, "[4]": {"target": "320 non-olfactory GPCRs (Homo sapiens, UniProt P30874)", "sequence (P30874 whole entry)": "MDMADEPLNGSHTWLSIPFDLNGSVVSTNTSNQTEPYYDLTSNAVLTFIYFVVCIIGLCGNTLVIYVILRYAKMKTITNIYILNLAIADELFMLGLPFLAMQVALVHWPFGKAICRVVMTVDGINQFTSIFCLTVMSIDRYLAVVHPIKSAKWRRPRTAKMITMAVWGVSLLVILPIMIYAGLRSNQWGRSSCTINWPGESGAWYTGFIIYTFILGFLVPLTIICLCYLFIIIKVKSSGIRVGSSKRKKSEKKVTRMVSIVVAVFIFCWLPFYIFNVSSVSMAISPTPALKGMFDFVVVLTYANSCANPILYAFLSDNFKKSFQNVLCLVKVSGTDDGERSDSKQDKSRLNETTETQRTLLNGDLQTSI", "settings": "receptor SSTR2; replicate values, Fig_4g"}, "[5]": {"target": "T1, 320 non-olfactory GPCRs (Homo sapiens, UniProt P29371)", "T1 construct": "expressed in transfected cells; host or cells: HTLA cells", "T1 sequence (P29371 whole entry)": "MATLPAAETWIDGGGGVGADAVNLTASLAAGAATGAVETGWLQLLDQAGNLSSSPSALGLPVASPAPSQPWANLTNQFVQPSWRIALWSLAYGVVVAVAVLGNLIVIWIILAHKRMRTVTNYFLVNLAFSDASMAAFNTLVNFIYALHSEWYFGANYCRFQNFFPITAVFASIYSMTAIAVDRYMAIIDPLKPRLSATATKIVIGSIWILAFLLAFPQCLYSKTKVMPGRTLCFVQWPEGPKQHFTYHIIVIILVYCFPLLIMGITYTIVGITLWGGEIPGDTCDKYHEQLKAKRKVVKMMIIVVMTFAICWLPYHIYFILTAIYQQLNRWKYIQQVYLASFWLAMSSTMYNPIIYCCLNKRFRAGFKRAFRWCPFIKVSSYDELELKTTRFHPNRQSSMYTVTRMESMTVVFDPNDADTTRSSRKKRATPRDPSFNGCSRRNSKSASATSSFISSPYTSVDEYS", "settings": "receptor TACR3; replicate values, Fig_4g"}},
  "note": "“And” between values parts separate entries of the source, which are not always exact repeats. Identical values can stand only once.",
  "data": [
    {"molecule": "CCOc1cccc2cc(C(C)NCC3(O)CCCCC3)oc12", "note": "(stereo not shown) [O4LE6];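 for GPCRome agonism screen response: fold over basal response of each receptor without drug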", "values": [
      {"measurement": "EC50", "setting": "[1]; DRD2, agonist, Gαi/o-mediated cAMP inhibition, read-out: EC50 ± SEM", "result": 0.57, "unit": "nM"},
      {"measurement": "response, Fig_S11d dose-response source data", "setting": "[1]; Log[Drug] -6.52", "result": 93.5634},
      {"measurement": "response, Fig_S11d dose-response source data", "setting": "[1]; Log[Drug] -7", "result": "91.3799 and 89.9656 and 96.7642 and 92.7028 and 90.0117 and 92.9852 and 92.6706 and 90.0792 and 94.9443"},
      {"measurement": "response, Fig_S11d dose-response source data", "setting": "[1]; Log[Drug] -7.52", "result": "89.3701 and 83.9361 and 92.3724 and 89.5789 and 91.7807 and 86.0032 and 96.0478 and 86.7857 and 84.4618"},
      {"measurement": "response, Fig_S11d dose-response source data", "setting": "[1]; Log[Drug] -8", "result": "70.6367 and 72.3736 and 84.6805 and 78.0803 and 77.3651 and 77.1016 and 86.6519 and 79.5632 and 77.7576"},
      {"measurement": "response, Fig_S11d dose-response source data", "setting": "[1]; Log[Drug] -8.52", "result": "93.2656 and 95.6724 and 92.9431 and 77.1769 and 79.2659 and 71.4182 and 77.4232 and 75.6176 and 79.697"},
      {"measurement": "response, Fig_S11d dose-response source data", "setting": "[1]; Log[Drug] -9", "result": "51.5311 and 33.9143 and 52.5981 and 65.5842 and 66.7322 and 55.2712 and 58.2302 and 71.02 and 60.3368"},
      {"measurement": "response, Fig_S11d dose-response source data", "setting": "[1]; Log[Drug] -9.52", "result": "27.2398 and 43.5167 and 44.7822 and 40.3099 and 41.1379 and 42.7564 and 40.5085 and 50.7403 and 30.2265"},
      {"measurement": "response, Fig_S11d dose-response source data", "setting": "[1]; Log[Drug] -10", "result": "9.9455 and 25.9991 and 17.2652 and 20.7754 and 27.795 and 3.65 and 25.4283 and 30.0426 and 37.3152"},
      {"measurement": "response, Fig_S11d dose-response source data", "setting": "[1]; Log[Drug] -10.52", "result": "8.06 and 24.1134 and 23.7164 and -2.2029 and 14.9603 and -7.6605 and -4.2473 and 22.3855 and 15.9154"},
      {"measurement": "response, Fig_S11d dose-response source data", "setting": "[1]; Log[Drug] -11", "result": "4.9334 and 7.216 and -1.766 and -6.3996 and -4.3107 and -5.3646 and 21.048 and 18.6238 and 5.767"},
      {"measurement": "response, Fig_S11d dose-response source data", "setting": "[1]; Log[Drug] -11.52", "result": "10.5658 and 8.68 and -1.4434 and 5.588 and 4.9296 and 13.8311 and 19.0585 and 28.0698 and 34.2223"},
      {"measurement": "response, Fig_S11d dose-response source data", "setting": "[1]; Log[Drug] -12", "result": "-7.7209 and 3.569 and -11.1202 and -5.7974 and -18.3122 and 14.3957 and 12.4212 and 21.7836 and -1.1209"},
      {"measurement": "Emax", "setting": "[1]; HEK-293T, read-out: Emax relative to quinpirole response, DRD2, cAMP inhibition", "result": 94.8, "unit": "%"},
      {"measurement": "Response, Fig_S11b dose-response", "setting": "[1]; Log[Drug] -5", "result": "94.6799 and 95.4987 and 95.201 and 94.3966 and 96.6361 and 95.6198 and 95.7635 and 88.9256 and 95.1617"},
      {"measurement": "Response, Fig_S11b dose-response", "setting": "[1]; Log[Drug] -5.52", "result": "94.4814 and 96.3424 and 99.171 and 96.9372 and 94.2837 and 95.6198 and 98.4051 and 98.5221 and 95.5796"},
      {"measurement": "Response, Fig_S11b dose-response", "setting": "[1]; Log[Drug] -6", "result": "96.5905 and 98.1785 and 100.163 and 88.2615 and 91.4043 and 96.2597 and 93.8409 and 94.9611 and 95.7301"},
      {"measurement": "Response, Fig_S11b dose-response", "setting": "[1]; Log[Drug] -6.52", "result": "93.5634 and 99.7168 and 93.0671 and 101.473 and 96.4667 and 100.061 and 98.4218 and 97.9202 and 92.704"},
      {"measurement": "Response, Fig_S11b dose-response", "setting": "[1]; Log[Drug] -7", "result": "91.3799 and 89.9656 and 96.7642 and 92.7028 and 90.0117 and 92.9852 and 92.6706 and 90.0792 and 94.9443"},
      {"measurement": "Response, Fig_S11b dose-response", "setting": "[1]; Log[Drug] -7.52", "result": "89.3701 and 83.9361 and 92.3724 and 89.5789 and 91.7807 and 86.0032 and 96.0478 and 86.7857 and 84.4618"},
      {"measurement": "Response, Fig_S11b dose-response", "setting": "[1]; Log[Drug] -8", "result": "70.6367 and 72.3736 and 84.6805 and 78.0803 and 77.3651 and 77.1016 and 86.6519 and 79.5632 and 77.7576"},
      {"measurement": "Response, Fig_S11b dose-response", "setting": "[1]; Log[Drug] -8.52", "result": "93.2656 and 95.6724 and 92.9431 and 77.1769 and 79.2659 and 71.4182 and 77.4232 and 75.6176 and 79.697"},
      {"measurement": "Response, Fig_S11b dose-response", "setting": "[1]; Log[Drug] -9", "result": "51.5311 and 33.9143 and 52.5981 and 65.5842 and 66.7322 and 55.2712 and 58.2302 and 71.02 and 60.3368"},
      {"measurement": "Response, Fig_S11b dose-response", "setting": "[1]; Log[Drug] -11", "result": 4.9334},
      {"measurement": "Response, Fig_S11b dose-response", "setting": "[1]; Log[Drug] -11.52", "result": "10.5658 and 8.68 and -1.4434 and 5.588 and 4.9296 and 13.8311 and 19.0585 and 28.0698 and 34.2223"},
      {"measurement": "Response, Fig_S11b dose-response", "setting": "[1]; Log[Drug] -12", "result": "-7.7209 and 3.569 and -11.1202 and -5.7974 and -18.3122 and 14.3957 and 12.4212 and 21.7836 and -1.1209"},
      {"measurement": "EC50", "setting": "[2]", "result": "> 10000", "unit": "nM"},
      {"measurement": "EC50", "setting": "[3]; agonist, read-out: EC50 ± SEM", "result": "5.09 ± 0.16", "unit": "nM"},
      {"measurement": "Emax", "setting": "[3]; read-out: Emax relative to quinpirole response", "result": 62.4, "unit": "%"},
      {"measurement": "GPCRome agonism screen response", "setting": "[4]", "result": "0.9255 and 0.9659 and 1.077 and 0.7883"},
      {"measurement": "GPCRome agonism screen response", "setting": "[5]", "result": "1.119 and 1.001 and 1.104 and 0.992"}
    ]}
  ]
}
